Results: BigSolDB 2.1

Nc1ccnc(=O)[nH]1
solubility (mole fraction)
Conditions	288.15 K	293.15 K	298.15 K	303.15 K	308.15 K	313.15 K	318.15 K	323.15 K	328.15 K
in DMSO	–	0.00997	0.0105	0.0111	0.012	0.0129	0.0136	0.0145	0.0155
in ethanol	0.000339	0.000348	0.000372	0.000423	0.000451	0.000497	0.000523	0.000609	0.000692
in isobutanol	0.000144	0.000162	0.000175	0.0002	0.000224	0.000268	0.000309	0.00035	0.000394
in isopentanol	0.000201	0.000221	0.000253	0.000278	0.000308	0.000344	0.000374	0.000415	0.000483
in isopropanol	0.000159	0.000175	0.000187	0.000205	0.00024	0.000283	0.000316	0.000358	0.000412
in methanol	0.000721	0.000808	0.000897	0.000999	0.00112	0.00125	0.00143	0.00159	0.00177
in n-butanol	0.000171	0.000193	0.000221	0.000241	0.000274	0.000301	0.000344	0.000389	0.000439
in n-hexanol	0.000139	0.000153	0.000168	0.000187	0.000213	0.000251	0.00029	0.000337	0.000378
in n-octanol	0.000102	0.000108	0.00012	0.000133	0.000153	0.000188	0.00023	0.000266	0.000304
in n-pentanol	0.000165	0.000185	0.000197	0.000228	0.000254	0.000293	0.00033	0.000369	0.000425
in n-propanol	0.000218	0.000235	0.000273	0.000303	0.000329	0.000373	0.000433	0.000526	0.000588
in sec-butanol	0.000128	0.000137	0.000149	0.000165	0.000191	0.000234	0.000279	0.000321	0.000367
in tert-butanol	–	–	–	0.000269	0.00036	0.000461	0.000706	0.000848	0.00118
in water	0.000768	0.000899	0.00112	0.00145	0.00176	0.00215	0.00261	0.00337	0.00397
